Experimental data published in ChEMBL document CHEMBL5291721, “A preclinical secondary pharmacology resource illuminates target-adverse drug reaction associations of marketed drugs” (Nat Commun, 2023).

Columns and labels:
Mu-type opioid receptor = Mu-type opioid receptor (Homo sapiens, UniProt P35372)
[1] = molecular target: T1, Prostaglandin G/H synthase 1 (Homo sapiens, UniProt P23219); format: functional
Progesterone receptor = molecular target: T2, Progesterone receptor (Homo sapiens, UniProt P06401)
T2 sequence (P06401 whole entry): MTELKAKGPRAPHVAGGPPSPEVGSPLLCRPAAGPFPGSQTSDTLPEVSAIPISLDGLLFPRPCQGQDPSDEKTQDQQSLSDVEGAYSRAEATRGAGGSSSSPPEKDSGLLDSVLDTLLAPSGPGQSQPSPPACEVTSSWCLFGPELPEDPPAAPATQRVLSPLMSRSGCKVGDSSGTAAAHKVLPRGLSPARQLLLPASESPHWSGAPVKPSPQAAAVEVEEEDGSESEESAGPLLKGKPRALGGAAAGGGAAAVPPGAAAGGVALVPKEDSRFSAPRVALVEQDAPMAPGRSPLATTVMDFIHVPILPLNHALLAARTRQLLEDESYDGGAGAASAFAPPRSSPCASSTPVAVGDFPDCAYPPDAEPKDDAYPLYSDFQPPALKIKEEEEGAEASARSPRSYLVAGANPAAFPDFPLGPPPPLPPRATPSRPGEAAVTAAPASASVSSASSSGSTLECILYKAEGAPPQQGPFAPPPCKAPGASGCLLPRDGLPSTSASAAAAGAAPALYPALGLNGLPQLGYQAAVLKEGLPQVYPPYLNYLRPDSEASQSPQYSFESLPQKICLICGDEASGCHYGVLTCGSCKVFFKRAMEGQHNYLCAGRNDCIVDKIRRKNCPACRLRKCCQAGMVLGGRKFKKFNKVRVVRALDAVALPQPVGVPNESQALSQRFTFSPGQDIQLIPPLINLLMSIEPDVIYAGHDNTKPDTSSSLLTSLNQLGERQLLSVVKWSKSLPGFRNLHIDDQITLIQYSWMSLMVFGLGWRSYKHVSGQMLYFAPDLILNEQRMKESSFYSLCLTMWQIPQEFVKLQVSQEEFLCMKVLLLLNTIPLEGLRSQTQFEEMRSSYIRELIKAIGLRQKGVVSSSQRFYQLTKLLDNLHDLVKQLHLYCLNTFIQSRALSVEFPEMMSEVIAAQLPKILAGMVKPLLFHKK

Histamine H3 receptor = Histamine H3 receptor (Homo sapiens, UniProt Q9Y5N1)
[2] = molecular target: Sodium-dependent dopamine transporter (Homo sapiens, UniProt Q01959)
[3] = molecular target: T3, Alpha-1A adrenergic receptor (Homo sapiens, UniProt P35348); format: functional, cell-based
T3 sequence (P35348 whole entry): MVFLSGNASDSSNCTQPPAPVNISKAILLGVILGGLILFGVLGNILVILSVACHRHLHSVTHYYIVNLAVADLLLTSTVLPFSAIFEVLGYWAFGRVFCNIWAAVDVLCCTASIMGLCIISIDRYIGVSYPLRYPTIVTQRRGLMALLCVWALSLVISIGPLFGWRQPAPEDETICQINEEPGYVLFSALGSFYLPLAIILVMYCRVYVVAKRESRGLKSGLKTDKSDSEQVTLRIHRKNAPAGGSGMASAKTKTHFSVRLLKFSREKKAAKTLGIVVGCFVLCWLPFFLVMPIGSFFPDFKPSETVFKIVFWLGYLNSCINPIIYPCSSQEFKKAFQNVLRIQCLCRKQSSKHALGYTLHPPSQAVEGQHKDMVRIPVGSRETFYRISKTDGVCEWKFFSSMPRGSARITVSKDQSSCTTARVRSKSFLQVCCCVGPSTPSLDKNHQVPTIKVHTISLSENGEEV

[4] = molecular target: cGMP-inhibited 3',5'-cyclic phosphodiesterase 3A (Homo sapiens, UniProt Q14432); format: functional
[5] = molecular target: T1, Prostaglandin G/H synthase 1; format: functional; remark: listed apart in the source
[6] = molecular target: T4, Muscarinic acetylcholine receptor M2 (Homo sapiens, UniProt P08172)
T4 sequence (P08172 whole entry): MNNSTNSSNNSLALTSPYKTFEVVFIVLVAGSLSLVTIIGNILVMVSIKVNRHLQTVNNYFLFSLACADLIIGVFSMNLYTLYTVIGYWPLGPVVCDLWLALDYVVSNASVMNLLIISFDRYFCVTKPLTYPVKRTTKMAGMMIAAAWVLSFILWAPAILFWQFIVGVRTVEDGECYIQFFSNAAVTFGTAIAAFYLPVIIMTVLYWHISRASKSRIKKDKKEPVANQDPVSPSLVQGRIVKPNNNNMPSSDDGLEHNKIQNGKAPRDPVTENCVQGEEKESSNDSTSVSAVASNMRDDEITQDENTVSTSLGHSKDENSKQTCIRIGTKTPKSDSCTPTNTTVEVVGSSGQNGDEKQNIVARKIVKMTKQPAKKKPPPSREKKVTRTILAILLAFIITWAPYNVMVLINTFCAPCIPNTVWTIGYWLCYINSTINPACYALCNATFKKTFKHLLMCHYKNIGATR

Adenosine receptor A3 = molecular target: T5, Adenosine receptor A3 (Homo sapiens, UniProt P0DMS8)
T5 sequence (P0DMS8 whole entry): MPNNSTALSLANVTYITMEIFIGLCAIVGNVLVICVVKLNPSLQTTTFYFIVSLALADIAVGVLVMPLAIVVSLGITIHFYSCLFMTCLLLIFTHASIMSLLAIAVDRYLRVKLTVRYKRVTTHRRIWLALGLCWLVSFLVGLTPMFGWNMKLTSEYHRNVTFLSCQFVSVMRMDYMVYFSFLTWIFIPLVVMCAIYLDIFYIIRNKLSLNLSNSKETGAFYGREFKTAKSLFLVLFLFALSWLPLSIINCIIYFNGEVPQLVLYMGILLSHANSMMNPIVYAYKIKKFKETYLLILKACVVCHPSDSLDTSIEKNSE

[7] = molecular target: Sodium-dependent serotonin transporter (Homo sapiens, UniProt P31645)
Prothrombin = Prothrombin (Homo sapiens, UniProt P00734); format: functional
Acetylcholinesterase = Acetylcholinesterase (Homo sapiens, UniProt P22303); format: functional
Also: assay procedure not described here.

Sodium-dependent serotonin transporter, sequence (P31645 whole entry): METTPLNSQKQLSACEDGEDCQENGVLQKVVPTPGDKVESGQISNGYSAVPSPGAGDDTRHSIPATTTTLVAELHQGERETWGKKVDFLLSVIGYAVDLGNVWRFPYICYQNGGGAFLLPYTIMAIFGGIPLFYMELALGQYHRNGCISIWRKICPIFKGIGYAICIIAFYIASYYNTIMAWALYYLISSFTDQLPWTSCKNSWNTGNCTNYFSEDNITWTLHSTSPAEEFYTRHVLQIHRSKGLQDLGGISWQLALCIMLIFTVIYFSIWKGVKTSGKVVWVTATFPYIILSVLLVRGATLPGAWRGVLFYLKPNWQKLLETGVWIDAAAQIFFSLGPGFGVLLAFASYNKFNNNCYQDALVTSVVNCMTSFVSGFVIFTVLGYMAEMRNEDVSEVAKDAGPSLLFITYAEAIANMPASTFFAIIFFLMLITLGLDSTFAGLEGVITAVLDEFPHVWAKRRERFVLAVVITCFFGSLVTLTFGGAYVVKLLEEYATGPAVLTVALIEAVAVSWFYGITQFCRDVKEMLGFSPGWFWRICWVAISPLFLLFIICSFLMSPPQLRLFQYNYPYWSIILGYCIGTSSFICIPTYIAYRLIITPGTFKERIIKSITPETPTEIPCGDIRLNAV
cGMP-inhibited 3',5'-cyclic phosphodiesterase 3A, sequence (Q14432 whole entry): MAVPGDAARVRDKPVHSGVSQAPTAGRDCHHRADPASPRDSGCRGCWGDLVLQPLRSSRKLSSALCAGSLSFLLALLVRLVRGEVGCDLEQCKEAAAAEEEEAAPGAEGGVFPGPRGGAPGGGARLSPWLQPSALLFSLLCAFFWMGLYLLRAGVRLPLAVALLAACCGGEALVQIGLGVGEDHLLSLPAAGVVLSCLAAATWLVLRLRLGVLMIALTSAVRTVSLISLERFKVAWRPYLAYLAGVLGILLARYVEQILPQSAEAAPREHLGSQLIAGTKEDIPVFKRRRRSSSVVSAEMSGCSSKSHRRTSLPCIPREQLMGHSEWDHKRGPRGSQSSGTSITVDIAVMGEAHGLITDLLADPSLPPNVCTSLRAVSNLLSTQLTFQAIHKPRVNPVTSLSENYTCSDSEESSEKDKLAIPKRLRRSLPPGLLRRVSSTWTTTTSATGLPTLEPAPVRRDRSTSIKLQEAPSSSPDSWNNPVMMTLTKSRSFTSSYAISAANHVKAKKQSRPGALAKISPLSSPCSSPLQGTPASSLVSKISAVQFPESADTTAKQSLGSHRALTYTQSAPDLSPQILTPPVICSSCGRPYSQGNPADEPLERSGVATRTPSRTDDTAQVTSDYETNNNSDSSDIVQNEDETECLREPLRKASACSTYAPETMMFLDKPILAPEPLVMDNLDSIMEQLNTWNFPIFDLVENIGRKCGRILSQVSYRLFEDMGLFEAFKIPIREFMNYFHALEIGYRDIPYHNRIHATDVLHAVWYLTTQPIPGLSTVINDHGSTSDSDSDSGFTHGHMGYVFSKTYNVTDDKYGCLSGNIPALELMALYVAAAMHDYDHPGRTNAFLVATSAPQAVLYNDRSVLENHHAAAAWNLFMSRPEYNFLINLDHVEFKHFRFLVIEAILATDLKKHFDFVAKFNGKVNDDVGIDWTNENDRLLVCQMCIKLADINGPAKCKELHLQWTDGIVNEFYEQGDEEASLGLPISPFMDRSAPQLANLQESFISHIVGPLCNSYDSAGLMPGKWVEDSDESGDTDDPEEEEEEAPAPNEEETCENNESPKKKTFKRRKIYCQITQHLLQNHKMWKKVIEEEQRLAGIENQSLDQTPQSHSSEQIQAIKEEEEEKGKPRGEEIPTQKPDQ
Sodium-dependent dopamine transporter, sequence (Q01959 whole entry): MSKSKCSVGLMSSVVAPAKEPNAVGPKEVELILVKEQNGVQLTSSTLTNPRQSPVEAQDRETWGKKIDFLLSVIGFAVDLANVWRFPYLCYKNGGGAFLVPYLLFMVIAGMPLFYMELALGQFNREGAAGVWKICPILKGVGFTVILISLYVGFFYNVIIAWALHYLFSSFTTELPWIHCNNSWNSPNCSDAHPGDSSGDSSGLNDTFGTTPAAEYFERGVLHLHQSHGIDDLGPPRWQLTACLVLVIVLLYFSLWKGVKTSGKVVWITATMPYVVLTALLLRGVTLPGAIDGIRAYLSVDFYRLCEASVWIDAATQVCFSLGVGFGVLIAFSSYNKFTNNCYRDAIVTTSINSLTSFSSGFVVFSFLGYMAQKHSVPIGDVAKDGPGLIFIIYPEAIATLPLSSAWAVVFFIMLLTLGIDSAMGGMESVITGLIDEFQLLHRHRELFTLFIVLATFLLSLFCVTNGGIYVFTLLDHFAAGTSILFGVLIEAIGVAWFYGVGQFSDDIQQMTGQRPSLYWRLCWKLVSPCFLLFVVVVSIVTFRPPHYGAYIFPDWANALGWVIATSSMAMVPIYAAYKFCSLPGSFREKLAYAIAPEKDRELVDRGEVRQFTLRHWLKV
Histamine H3 receptor, sequence (Q9Y5N1 whole entry): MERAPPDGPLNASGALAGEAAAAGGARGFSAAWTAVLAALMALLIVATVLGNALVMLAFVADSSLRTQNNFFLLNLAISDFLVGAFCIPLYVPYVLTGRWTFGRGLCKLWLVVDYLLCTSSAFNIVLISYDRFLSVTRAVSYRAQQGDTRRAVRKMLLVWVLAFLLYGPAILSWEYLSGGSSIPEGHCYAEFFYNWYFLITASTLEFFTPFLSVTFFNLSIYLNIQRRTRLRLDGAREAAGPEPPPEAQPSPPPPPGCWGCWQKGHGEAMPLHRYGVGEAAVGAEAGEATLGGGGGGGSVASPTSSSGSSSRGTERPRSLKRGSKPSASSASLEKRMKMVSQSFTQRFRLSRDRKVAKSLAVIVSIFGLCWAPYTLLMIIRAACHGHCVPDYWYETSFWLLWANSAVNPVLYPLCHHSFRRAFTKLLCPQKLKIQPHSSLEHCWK
Mu-type opioid receptor, sequence (P35372 whole entry): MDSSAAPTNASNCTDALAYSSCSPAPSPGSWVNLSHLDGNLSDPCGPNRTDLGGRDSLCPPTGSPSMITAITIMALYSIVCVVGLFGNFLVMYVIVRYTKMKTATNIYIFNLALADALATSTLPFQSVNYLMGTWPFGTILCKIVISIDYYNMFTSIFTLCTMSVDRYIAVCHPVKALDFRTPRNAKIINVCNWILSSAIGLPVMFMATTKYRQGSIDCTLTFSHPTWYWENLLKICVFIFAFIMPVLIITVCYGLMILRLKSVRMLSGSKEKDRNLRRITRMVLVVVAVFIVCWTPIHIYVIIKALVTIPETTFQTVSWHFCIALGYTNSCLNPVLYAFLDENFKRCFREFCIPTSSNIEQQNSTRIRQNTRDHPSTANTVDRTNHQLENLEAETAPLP
T1 sequence (P23219 whole entry): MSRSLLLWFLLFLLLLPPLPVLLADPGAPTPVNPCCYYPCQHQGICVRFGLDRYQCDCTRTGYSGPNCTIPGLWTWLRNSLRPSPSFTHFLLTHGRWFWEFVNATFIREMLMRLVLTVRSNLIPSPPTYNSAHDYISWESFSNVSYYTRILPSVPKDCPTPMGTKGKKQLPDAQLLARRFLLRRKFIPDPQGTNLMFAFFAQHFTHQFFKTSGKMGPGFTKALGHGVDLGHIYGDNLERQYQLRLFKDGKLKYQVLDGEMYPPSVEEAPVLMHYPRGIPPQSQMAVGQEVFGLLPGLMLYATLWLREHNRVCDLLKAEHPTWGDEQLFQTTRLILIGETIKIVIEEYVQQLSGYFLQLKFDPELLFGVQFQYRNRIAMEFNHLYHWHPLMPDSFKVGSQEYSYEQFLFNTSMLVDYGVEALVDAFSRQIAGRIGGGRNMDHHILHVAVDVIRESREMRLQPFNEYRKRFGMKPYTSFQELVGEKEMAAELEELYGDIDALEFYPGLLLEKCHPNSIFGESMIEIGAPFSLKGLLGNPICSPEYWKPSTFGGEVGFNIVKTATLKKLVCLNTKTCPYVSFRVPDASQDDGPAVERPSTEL
Acetylcholinesterase, sequence (P22303 whole entry): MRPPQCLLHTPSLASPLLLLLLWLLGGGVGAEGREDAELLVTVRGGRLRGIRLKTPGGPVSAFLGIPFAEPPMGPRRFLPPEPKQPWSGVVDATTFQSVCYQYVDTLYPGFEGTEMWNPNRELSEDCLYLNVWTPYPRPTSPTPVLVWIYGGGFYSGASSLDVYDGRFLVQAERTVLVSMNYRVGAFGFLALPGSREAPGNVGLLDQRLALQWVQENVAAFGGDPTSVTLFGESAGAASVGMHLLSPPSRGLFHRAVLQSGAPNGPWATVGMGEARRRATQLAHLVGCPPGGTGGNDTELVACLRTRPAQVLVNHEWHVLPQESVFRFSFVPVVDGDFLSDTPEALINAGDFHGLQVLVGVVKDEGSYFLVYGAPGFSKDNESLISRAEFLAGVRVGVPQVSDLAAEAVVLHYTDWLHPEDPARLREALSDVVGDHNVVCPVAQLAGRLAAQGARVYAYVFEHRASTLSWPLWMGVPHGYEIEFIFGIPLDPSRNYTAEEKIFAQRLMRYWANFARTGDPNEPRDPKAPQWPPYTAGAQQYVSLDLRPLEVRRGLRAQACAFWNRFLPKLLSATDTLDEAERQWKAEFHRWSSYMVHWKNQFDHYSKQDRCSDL

| SMILES | AC50 (Mu-type opioid receptor) [µM] | AC50 [1] [µM] | AC50 (Progesterone receptor) [µM] | AC50 (Histamine H3 receptor) [µM] | AC50 [2] [µM] | AC50 [3] [µM] | AC50 [4] [µM] | AC50 [5] [µM] | AC50 [6] [µM] | AC50 (Adenosine receptor A3) [µM] | AC50 [7] [µM] | AC50 (Prothrombin) [µM] | AC50 (Acetylcholinesterase) [µM] |
| --- | --- | --- | --- | --- | --- | --- | --- | --- | --- | --- | --- | --- | --- |
| O=c1[nH]c(=O)n([C@H]2C[C@H](O)[C@@H](CO)O2)cc1/C=C/Br [BRIVUDINE] | > 30 | > 30 | > 30 | > 30 | > 30 | > 30 | > 30 | > 30 | > 30 | > 30 | > 30 | > 30 | > 30 |
| Nc1ccc(C(=O)NCC(=O)O)cc1 [AMINOHIPPURIC ACID] | > 30 | > 30 | > 30 | > 30 | > 30 | > 30 | > 30 | > 30 | > 30 | > 30 | > 30 | > 30 | > 30 |
| Nc1ccn(C[C@@H](CO)OCP(=O)(O)O)c(=O)n1 [CIDOFOVIR] | > 30 | > 30 | > 30 | > 30 | > 30 | > 30 | > 30 | > 30 | > 30 | > 30 | > 30 | > 30 | > 30 |
| CNC(=O)c1cnn(-c2nc(N)c3ncn([C@@H]4O[C@H](CO)[C@@H](O)[C@H]4O)c3n2)c1 [REGADENOSON ANHYDROUS] | > 30 | > 30 | > 30 | > 30 | > 30 | 28.2 | > 30 | > 30 | > 30 | 0.481 | > 30 | > 30 | > 30 |
| CC(NCCC(c1ccccc1)c1ccccc1)c1ccccc1 (stereo not given) [FENDILINE] | 0.721 | > 30 | > 30 | > 30 | 3.48 | 25.8 | > 30 | > 30 | 6.17 | 26.8 | 7.94 | > 3 | > 30 |
| CN1C(C(=O)Nc2ccccn2)=C(OC(=O)/C=C/c2ccccc2)c2ccccc2S1(=O)=O [PIROXICAM CINNAMATE] | > 30 | > 30 | > 30 | > 30 | > 30 | > 30 | > 30 | 16.3 | > 30 | > 30 | > 30 | > 30 | > 30 |
| Cc1cccc(C)c1NC(=O)CN(CC(=O)O)CC(=O)O [LIDOFENIN] | > 30 | > 30 | > 30 | > 30 | > 30 | > 30 | > 30 | > 30 | > 30 | > 30 | > 30 | > 30 | > 30 |
| CC(=O)OCC(=O)[C@@]1(O)CC[C@H]2[C@@H]3C[C@H](C)C4=CC(=O)C=C[C@]4(C)[C@H]3[C@@H](O)C[C@@]21C [METHYLPREDNISOLONE ACETATE] | > 30 | > 30 | 3.03 | > 30 | > 30 | > 30 | > 30 | > 30 | > 30 | > 30 | > 30 | 11.9 | > 30 |
| CC(O)(CC(=O)O)CC(=O)O [MEGLUTOL] | > 30 | > 30 | > 30 | > 30 | > 30 | > 30 | > 30 | > 30 | > 30 | > 30 | > 30 | > 30 | > 30 |
| CCn1c(=O)c2c(nc(/C=C/c3ccc(OC)c(OC)c3)n2C)n(CC)c1=O [ISTRADEFYLLINE] | > 30 | > 30 | > 30 | > 30 | > 30 | > 30 | > 30 | > 30 | > 30 | > 10 | > 30 | – | > 30 |
| NC(=O)N/N=C/c1ccc([N+](=O)[O-])o1 [NITROFURAZONE] | > 30 | > 30 | > 30 | > 30 | > 30 | > 30 | 29.8 | > 30 | > 30 | > 30 | > 30 | > 30 | > 30 |
| CN1CCc2c(c3ccccc3n2Cc2ccccc2)C1 [MEBHYDROLIN] | 18.7 | > 30 | > 30 | > 30 | 0.334 | > 30 | > 30 | > 30 | 0.268 | > 30 | 28.5 | > 30 | > 30 |
| Cc1cn(-c2cc(NC(=O)c3ccc(C)c(Nc4nccc(-c5cnccn5)n4)c3)cc(C(F)(F)F)c2)cn1 [RADOTINIB] | > 3 | > 30 | > 30 | > 30 | > 30 | > 30 | > 3 | 26 | > 30 | 0.298 | > 30 | > 30 | > 10 |
| CC(C)(C)NCC(O)COc1ccccc1C#N (stereo not given) [BUNITROLOL] | > 30 | > 30 | > 30 | > 30 | > 30 | > 30 | > 30 | > 30 | > 30 | – | > 30 | > 30 | > 30 |
